Earlier results on one molecule are cited in patent US20230310434A1, “METHODS OF REDUCING THE LIKELIHOOD OF CARCINOID HEART DISEASE IN PATIENTS WITH NEUROENDOCRINE TUMORS” (TerSera Therapeutics LLC, priority 2022, published 2023).

For data set [1], the system named is patients with carcinoid syndrome (CS) diarrhea. The conditions noted are these: TELECAST
In data set [2] the test system is patients with carcinoid syndrome not adequately controlled with SSA therapy. The conditions noted are these: TELESTAR; TE 250 or 500 mg three times daily; patients on stable dose SSA.
Where [3] appears, read: TE 250 or 500 mg three times daily, patients on stable dose SSA.

Turning to `CCOC(=O)[C@@H](N)Cc1ccc(-c2cc(O[C@H](c3ccc(Cl)cc3-n3ccc(C)n3)C(F)(F)F)nc(N)n2)cc1` [TE, (S)-ethyl 2-amino-3-(4-(2-amino-6-((R)-1-(4-chloro-2-(3-methyl-1H-pyrazol-1-yl)phenyl)-2,2,2-trifluoroethoxy)pyrimidin-4-yl)phenyl)propanoate], in data set [1] (TE 250 or 500 mg three times daily added to SSAs), the “efficacy when added to SSAs to treat carcinoid syndrome diarrhea” value is “effective”. Moreover, the “frequency of bowel movements” value in data set [1] (setting [3]) and in data set [2] was “reduced” throughout. The “urinary 5-HIAA levels” value in data set [1] (setting [3]) and in data set [2] was “reduced” in each case.
